Reference: patent US20250123282A1, “METHODS FOR EVALUATION AND TREATMENT OF TYROSINE KINASE INHIBITOR (TKI)-RESISTANT ACUTE MYELOID LEUKEMIA” (LOMA LINDA UNIVERSITY, priority 2021, published 2025)

Tests used:
Format in all cases: cell-based, human
[1] = test system: MV4-11 cells; test: Coculture of GILT and exogenous MIF on MV4-11 (sequential or simultaneous); conditions: MV4-11, sequential coculture 5 days, 80 nM GILT only
Protocol: To investigate whether MIF/CXCLs-CXCR2 pathways could be activated by TKI-treatment in viable blasts to support their survival and continuous proliferation, a serial coculture was conducted to examine whether the supplementation of exogenous MIF at early (simultaneous) or late stage (sequential) of TKI treatment could rescue the GIL-treated MV4-11 in vitro. CD44, a multifunctional cell surface adhesion receptor, was identified as a key regulator of quiescent AML leukemic stem cells (LSCs) which are highly microenvironment dependent. […] In the simultaneous coculture, another group of CD44High^+ cells was also found which included both Ki67^+ and Ki67^− subsets (FIG. 8F). This group of CD44High^+ cells could be visualized in the flow cytometry histogram (FIG. 8G). […] CD44high^+ stem-like cells have been previously found to be highly tumorigenic, treatment-resistant and responsible for metastatic progression in breast cancer.

[2] = test system: MV4-11 cells; test: Phase-bright imaging of re-growth of TKI-treated MV4-11
From the text: (§1) To follow the cell fate of TKI-treated MV4-11 and MOLM-14, culturing of blasts were continued by performing medium change every 2-3 days. […] The BAD protein is a pro-apoptotic member of the BCL-2 gene family, which is involved in initiating apoptosis. Dephosphorylated BAD is pro-apoptotic by binding BCL-2 and inactivating BCL-2, while phosphorylated BAD (pBAD) is anti-apoptotic by leaving BCL-2 free to inhibit BAX-triggered apoptosis.
(§2) Small Molecular Inhibitors and in vitro & ex vivo Treatment. […] The dose of 80 nM for the four TKIs was selected based on their dose-dependent cytotoxicity in previous reports. […] Both GILT and QUIZ were reported to start to suppress the tumorigenic clustering and c-Kit at the dose of 80 nM. […] The combination of 5 μM 5-Azacitidine (AZA) and 80 nM 1α,25-Dihydroxyvitamin D3 (VD3) was added to the experimental group similar to the previous report. As combination agents to treat blasts in vitro, one dose of 80 nM GILT with one dose of either 100 nM Venetoclax (BCL2 inhibitor), 10 μM (R)-Lisofylline (STAT4 inhibitor), 100 nM AZD1208 (PIM inhibitor), 500 nM PF-06826647 (TYK2 inhibitor), or 500 nM AT9283 (JAK2/3 inhibitor) were added to 1 ml of 1×10^6 cells for each experimental group in 24 well plates. Three days after the one dose treatment, cells were then collected for either analyses by FACS and qPCR, or re-plated into 24 well plates for continued culture. At different time points, re-plated cells were collected for analyses by FACS and qPCR. Medium change was performed every 2-3 days.
Imaging Acquisition. Phase-bright images were taken using an Olympus 1X71 inverted microscope and were processed using an Olympus cellSens Dimension 1.15 Imaging Software.

[3] = test system: MV4-11 cells; test: FACS of TKI-treated MV4-11 cells in vitro (viable blasts, Ki67, pBAD); conditions: 3 days after one dose of 80 nM TKI; vs non-treatment controls
Protocol: The AML cells were analyzed at different time points after exposure to TKI (3 days, 10 days, 20 days, and 28 days). […] After 3 days, FACS of the surface markers and intracellular proteins, including CD14, CD33, CD44, and Ki67, were performed. FIGS. 1A-1E depicts therapeutic effect of different TKIs on MV4-11 and MOLM-14 cells in vitro (N=6). […] The circles indicate the group of viable blasts located in a FACS plot and green arrows indicate the dying tendency of blasts which will become positive for viability dye during the next few days. FIGS. 1C and 1D are graphical representations of the cumulative FACS percentage data of viable MV4-11 and MOLM-14 cells. *P<0.05. […]
Flow Cytometry (FACS). […] About 1×10^4˜10^6 cells in 100 μl FACS buffer (PBS containing 1% FBS and 0.05% sodium azide) were stained with various fluorescence-conjugated antibodies specific for the desired cell surface proteins at 4° C. for 30 min. The surface-stained cells were then fixed and permeabilized using the appropriate reagents (e.g. the BD Pharmingen Cytofix/Cytoperm buffer) and stained with different fluorescence-conjugated antibodies specific for the desired intracellular proteins at 4° C. for 2 hours in the permeabilizing buffer (e.g. the BD Perm/Wash buffer). […] Finally, the cells were washed twice in the permeabilizing buffer and twice in the FACS buffer before being analyzed on the BD FACSAria II. […]

[4] = test system: MOLM-14 cells; test: Phase-bright imaging of re-growth of TKI-treated MOLM-14; conditions: 10 days after TKI treatment
From the text: as §1
as §2, with “At different time points, re-plated cells were collected for analyses by FACS and qPCR. Medium change was performed every 2-3 days.” left out

Structure (SMILES) | percentage of viable quiescent CD44+ cell population [1] [%] | re-growth / tumorigenic clusters of MV4-11 ([2]; 10 days after TKI treatment) | re-growth / tumorigenic clusters of MV4-11 ([2]; 20 days after TKI treatment) | re-growth / relapse of MV4-11 ([2]; 28 days after TKI treatment) | viable MV4-11 blasts (FACS) [3] | re-growth / tumorigenic clusters of MOLM-14 [4]
CCc1nc(C(N)=O)c(Nc2ccc(N3CCC(N4CCN(C)CC4)CC3)c(OC)c2)nc1NC1CCOCC1 [GILT, Gilteritinib] | 17.7 | – | – | – | – | –
CC(C)(C)c1cc(NC(=O)Nc2ccc(-c3cn4c(n3)sc3cc(OCCN5CCOCC5)ccc34)cc2)no1 [QUIZ, Quizartinib] | – | few newly formed tumorigenic clusters | many tumorigenic clusters | grew confluent without tumorigenic clusters | more effective | few newly formed tumorigenic clusters
